Read-outs that look alike come from different tables or passages of the source. Positions of bridges follow the written chain, without caps; N, C: chain ends. Non-standard residues stand in square brackets, D forms with d. Residues, ends and D or L forms follow the SMILES beside them. Nle = CCCC[C@H](N)C(=O)O; Dab = NCC[C@H](N)C(=O)O
Tests used:
[1] = test system: Lizard (Anolis carolinensis) Skin; format: cell-based; conditions: for Residual Activity Lizard (prolonged action): linear analogues
Description: (§1) The biological potencies of alpha-MSH, the linear and cyclic analogues were determined by their ability to stimulate melanosome dispersion in vitro in the frog and lizard bioassays. This in vitro assay provides clear cut dose response curves (between 2.5×10^-11 and 4×10^-10 M) and can detect minimal concentration of alpha-MSH of about 10^-11 M. The assay is based upon the centrifugal dispersion of melanosomes (melanin granules) within the dendritic processes of integumental dermal melanophores leading to darkening of the skin. All the test solutions were prepared via serial dilutions from a stock solution (10^-4 M). The frogs (Rana pipiens) used in these evaluations were obtained from Kons Scientific, Germantown, Wis., and the lizards (Anolis carolinensis) were from the Snake Farm, La Place, La.

Frog (Rana pipiens) Skin = format: cell-based
Description: as §1

[2] = cyclic analogues, alpha-MSH = 1.0

Structure (SMILES)	Biological Potency Lizard [1]	Residual Activity Lizard (prolonged action) [1]	Biological Potency Frog (Frog (Rana pipiens) Skin)	Residual Activity Frog (prolonged action) (Frog (Rana pipiens) Skin; linear analogues)	Residual Activity Frog (prolonged action) (Frog (Rana pipiens) Skin; cyclic analogues)	Biological Potency Frog (Frog (Rana pipiens) Skin; [2])
CCCC[C@H](NC(=O)[C@H](CO)NC(=O)[C@H](Cc1ccc(O)cc1)NC(=O)[C@H](CO)NC(C)=O)C(=O)N[C@@H](CCC(=O)O)C(=O)N[C@@H](Cc1c[nH]cn1)C(=O)N[C@H](Cc1ccccc1)C(=O)N[C@@H](CCCNC(=N)N)C(=O)N[C@@H](Cc1c[nH]c2ccccc12)C(=O)N[C@@H](CCCCN)C(=O)NCC(=O)N1CCC[C@H]1C(=O)N[C@H](C(N)=O)C(C)C [Analogue 1] (Ac-SYS[Nle]EH[dF]RWKGPV-NH2)	8.0	P(-)	6.0	P(+)		
CCCC[C@H](NC(=O)[C@H](CO)NC(=O)[C@H](Cc1ccc(O)cc1)NC(=O)[C@H](CO)NC(C)=O)C(=O)N[C@@H](CC(=O)O)C(=O)N[C@@H](Cc1c[nH]cn1)C(=O)N[C@H](Cc1ccccc1)C(=O)N[C@@H](CCCNC(=N)N)C(=O)N[C@@H](Cc1c[nH]c2ccccc12)C(=O)N[C@@H](CCCCN)C(=O)NCC(=O)N1CCC[C@H]1C(=O)N[C@H](C(N)=O)C(C)C [Analogue 2] (Ac-SYS[Nle]DH[dF]RWKGPV-NH2)	8.0	P(-)	9.0	P(+)		
CCCC[C@H](NC(C)=O)C(=O)N[C@@H](CCC(=O)O)C(=O)N[C@@H](Cc1c[nH]cn1)C(=O)N[C@H](Cc1ccccc1)C(=O)N[C@@H](CCCNC(=N)N)C(=O)N[C@@H](Cc1c[nH]c2ccccc12)C(=O)N[C@@H](CCCCN)C(=O)NCC(=O)N1CCC[C@H]1C(=O)N[C@H](C(N)=O)C(C)C [Analogue 3] (Ac-[Nle]EH[dF]RWKGPV-NH2)	8.0	P(+)	0.8	P(+)		
CCCC[C@H](NC(C)=O)C(=O)N[C@@H](CC(=O)O)C(=O)N[C@@H](Cc1c[nH]cn1)C(=O)N[C@H](Cc1ccccc1)C(=O)N[C@@H](CCCNC(=N)N)C(=O)N[C@@H](Cc1c[nH]c2ccccc12)C(=O)N[C@@H](CCCCN)C(=O)NCC(=O)N1CCC[C@H]1C(=O)N[C@H](C(N)=O)C(C)C [Analogue 4] (Ac-[Nle]DH[dF]RWKGPV-NH2)	10.0	P(+)	1.0	P(+)		
CCCC[C@H](NC(C)=O)C(=O)N[C@@H](CC(=O)O)C(=O)N[C@@H](Cc1c[nH]cn1)C(=O)N[C@H](Cc1ccccc1)C(=O)N[C@@H](CCCNC(=N)N)C(=O)N[C@@H](Cc1c[nH]c2ccccc12)C(=O)NCC(N)=O [Analogue 5]	8.0	P(-)	0.1	P(-)		
CCCC[C@H](NC(C)=O)C(=O)N[C@@H](CCC(=O)O)C(=O)N[C@@H](Cc1c[nH]cn1)C(=O)N[C@H](Cc1ccccc1)C(=O)N[C@@H](CCCNC(=N)N)C(=O)N[C@@H](Cc1c[nH]c2ccccc12)C(=O)N[C@@H](CCCCN)C(N)=O [Analogue 6]	8.0	P(-)	0.2	P(-)		
CCCC[C@H](NC(C)=O)C(=O)N[C@@H](CC(=O)O)C(=O)N[C@@H](Cc1c[nH]cn1)C(=O)N[C@H](Cc1ccccc1)C(=O)N[C@@H](CCCNC(=N)N)C(=O)N[C@@H](Cc1c[nH]c2ccccc12)C(=O)N[C@@H](CCCCN)C(N)=O [Analogue 7]	8.0	P(-)				
CCCC[C@H](NC(C)=O)C(=O)N[C@@H](CCC(=O)O)C(=O)N[C@@H](Cc1c[nH]cn1)C(=O)N[C@H](Cc1ccccc1)C(=O)N[C@@H](CCCNC(=N)N)C(=O)N[C@@H](Cc1c[nH]c2ccccc12)C(=O)N[C@@H](CCCN)C(N)=O [Analogue 8]	8.0	P(-)	0.6	P(-)		
CCCC[C@H](NC(C)=O)C(=O)N[C@@H](CC(=O)O)C(=O)N[C@@H](Cc1c[nH]cn1)C(=O)N[C@H](Cc1ccccc1)C(=O)N[C@@H](CCCNC(=N)N)C(=O)N[C@@H](Cc1c[nH]c2ccccc12)C(=O)N[C@@H](CCCN)C(N)=O [Analogue 9]	10.0	P(-)	0.9			
CCCC[C@H](NC(C)=O)C(=O)N[C@@H](CCC(=O)O)C(=O)N[C@@H](Cc1c[nH]cn1)C(=O)N[C@H](Cc1ccccc1)C(=O)N[C@@H](CCCNC(=N)N)C(=O)N[C@@H](Cc1c[nH]c2ccccc12)C(=O)N[C@@H](CCN)C(N)=O [Analogue 10] (Ac-[Nle]EH[dF]RW[Dab]-NH2)	10.0	P(±)	0.9	P(±)		
CCCC[C@H](NC(C)=O)C(=O)N[C@@H](CC(=O)O)C(=O)N[C@@H](Cc1c[nH]cn1)C(=O)N[C@H](Cc1ccccc1)C(=O)N[C@@H](CCCNC(=N)N)C(=O)N[C@@H](Cc1c[nH]c2ccccc12)C(=O)N[C@@H](CCN)C(N)=O [Analogue 11]	50.0	P(-)	0.9	P(-)		
CCCC[C@H](NC(C)=O)C(=O)N[C@@H](CC(=O)O)C(=O)N[C@@H](Cc1c[nH]cn1)C(=O)N[C@H](Cc1ccccc1)C(=O)N[C@@H](CCCNC(=N)N)C(=O)N[C@@H](Cc1c[nH]c2ccccc12)C(=O)N[C@@H](CN)C(N)=O [Analogue 12]	8.0	P(-)	0.2	P(-)		
CCCC[C@H](NC(C)=O)C(=O)N[C@@H](CC(=O)O)C(=O)N[C@@H](Cc1c[nH]cn1)C(=O)N[C@@H](Cc1ccccc1)C(=O)N[C@@H](CCCNC(=N)N)C(=O)N[C@@H](Cc1c[nH]c2ccccc12)C(=O)N[C@@H](CCCCN)C(N)=O [Analogue 14]	0.08	P(-)				
CCCC[C@H](NC(=O)[C@H](CO)NC(=O)[C@H](Cc1ccc(O)cc1)NC(=O)[C@H](CO)NC(C)=O)C(=O)N[C@H]1CC(=O)NCCCC[C@@H](C(=O)NCC(=O)N2CCC[C@H]2C(=O)N[C@H](C(N)=O)C(C)C)NC(=O)[C@H](Cc2c[nH]c3ccccc23)NC(=O)[C@H](CCCNC(=N)N)NC(=O)[C@@H](Cc2ccccc2)NC(=O)[C@H](Cc2c[nH]cn2)NC1=O [Analogue 21] (Ac-SYS[Nle]DH[dF]RWKGPV-NH2; lactam 5-10)					p(+)	8.0
CCCC[C@H](NC(=O)[C@H](CO)NC(=O)[C@H](Cc1ccc(O)cc1)NC(=O)[C@H](CO)NC(C)=O)C(=O)N[C@H]1CC(=O)NCCCC[C@@H](C(N)=O)NC(=O)[C@H](Cc2c[nH]c3ccccc23)NC(=O)[C@H](CCCNC(=N)N)NC(=O)[C@@H](Cc2ccccc2)NC(=O)[C@H](Cc2c[nH]cn2)NC1=O [Analogue 22] (Ac-SYS[Nle]DH[dF]RWK-NH2; lactam 5-10)					p(+)	2.0
CCCC[C@H](NC(=O)[C@H](CO)NC(=O)[C@H](Cc1ccc(O)cc1)NC(C)=O)C(=O)N[C@H]1CC(=O)NCCCC[C@@H](C(N)=O)NC(=O)[C@H](Cc2c[nH]c3ccccc23)NC(=O)[C@H](CCCNC(=N)N)NC(=O)[C@@H](Cc2ccccc2)NC(=O)[C@H](Cc2c[nH]cn2)NC1=O [Analogue 23] (Ac-YS[Nle]DH[dF]RWK-NH2; lactam 4-9)					p(+)	0.7
CCCC[C@H](NC(=O)[C@H](CO)NC(C)=O)C(=O)N[C@H]1CC(=O)NCCCC[C@@H](C(N)=O)NC(=O)[C@H](Cc2c[nH]c3ccccc23)NC(=O)[C@H](CCCNC(=N)N)NC(=O)[C@@H](Cc2ccccc2)NC(=O)[C@H](Cc2c[nH]cn2)NC1=O [Analogue 24] (Ac-S[Nle]DH[dF]RWK-NH2; lactam 3-8)					p(+)	1.0
CCCC[C@H](NC(C)=O)C(=O)N[C@H]1CC(=O)NCCCC[C@@H](C(=O)NCC(N)=O)NC(=O)[C@H](Cc2c[nH]c3ccccc23)NC(=O)[C@H](CCCNC(=N)N)NC(=O)[C@@H](Cc2ccccc2)NC(=O)[C@H](Cc2c[nH]cn2)NC1=O [Analogue 26] (Ac-[Nle]DH[dF]RWKG-NH2; lactam 2-7)					p(+)	5.5
CCCC[C@H](NC(C)=O)C(=O)N[C@H]1CC(=O)NCCCC[C@@H](C(=O)NCC(=O)N2CCC[C@H]2C(N)=O)NC(=O)[C@H](Cc2c[nH]c3ccccc23)NC(=O)[C@H](CCCNC(=N)N)NC(=O)[C@@H](Cc2ccccc2)NC(=O)[C@H](Cc2c[nH]cn2)NC1=O [Analogue 27] (Ac-[Nle]DH[dF]RWKGP-NH2; lactam 2-7)					p(+)	4.0
CCCC[C@H](NC(C)=O)C(=O)N[C@H]1CC(=O)NCCCC[C@@H](C(=O)NCC(=O)N2CCC[C@H]2C(=O)N[C@H](C(N)=O)C(C)C)NC(=O)[C@H](Cc2c[nH]c3ccccc23)NC(=O)[C@H](CCCNC(=N)N)NC(=O)[C@@H](Cc2ccccc2)NC(=O)[C@H](Cc2c[nH]cn2)NC1=O [Analogue 28] (Ac-[Nle]DH[dF]RWKGPV-NH2; lactam 2-7)					p(+)	2.0
CCCC[C@H](NC(=O)[C@H](CO)NC(C)=O)C(=O)N[C@H]1CC(=O)NCCCC[C@@H](C(=O)NCC(=O)N2CCC[C@H]2C(=O)N[C@H](C(N)=O)C(C)C)NC(=O)[C@H](Cc2c[nH]c3ccccc23)NC(=O)[C@H](CCCNC(=N)N)NC(=O)[C@@H](Cc2ccccc2)NC(=O)[C@H](Cc2c[nH]cn2)NC1=O [Analogue 29] (Ac-S[Nle]DH[dF]RWKGPV-NH2; lactam 3-8)					p(+)	9.0

From patent US5714576A, “Linear analogs of alpha-msh fragments” (Competitive Technologies, Inc., priority 1997, dated 1998)
